Test system: 876862-298-R-J1-PDC complex spheroids, viability % test/control
Assay: Anticancer human tumor 876862-298-R-J1-PDC patient-derived endometrial carcinoma cell line growth inhibition [CLK]
Conditions: for IC50: curve of first compound; for viability, T/C: stronger effect = lower value
Outline: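 Multi-cell-type spheroids combined patient-derived tumor cells with HUVEC endothelial cells and human mesenchymal stem cells. Paired agents were dosed in half-log steps down from about clinical Cmax, or from 10 microM where Cmax was unknown.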
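Also: spheroids exposed to drugs for 7 days before readout.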
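For viability, T/C in this document: 100% = DMSO vehicle control wells.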

## C=CC(=O)Nc1cc(Nc2nccc(-c3cn(C)c4ccccc34)n2)c(OC)cc1N(C)CCN(C)C + CN1CCN(c2cc(C(=O)Nc3cc4cc(-c5cnn(C)c5)ccc4cn3)ccn2)CC1
Second compound 0.0316 µM
  IC50: 262000 pM
Second compound 0.1 µM
  IC50: < 949 pM
Second compound 0.316 µM
  IC50: < 949 pM
Second compound 1 µM
  IC50: < 949 pM
Second compound 3.16 µM
  IC50: < 949 pM
Second compound 10 µM
  IC50: < 949 pM
Second compound 0.0316 µM, first compound 0.000949 µM
  viability, T/C: 90%
Second compound 0.0316 µM, first compound 0.003 µM
  viability, T/C: 92.8%
Second compound 0.0316 µM, first compound 0.00949 µM
  viability, T/C: 90%
Second compound 0.0316 µM, first compound 0.03 µM
  viability, T/C: 82.7%
Second compound 0.0316 µM, first compound 0.0949 µM
  viability, T/C: 67.6%
Second compound 0.0316 µM, first compound 0.3 µM
  viability, T/C: 47.6%
Second compound 0.1 µM, first compound 0.000949 µM
  viability, T/C: 51.6%
Second compound 0.1 µM, first compound 0.003 µM
  viability, T/C: 45.1%
Second compound 0.1 µM, first compound 0.00949 µM
  viability, T/C: 43.7%
Second compound 0.1 µM, first compound 0.03 µM
  viability, T/C: 48.8%
Second compound 0.1 µM, first compound 0.0949 µM
  viability, T/C: 43.3%
Second compound 0.1 µM, first compound 0.3 µM
  viability, T/C: 30.7%
Second compound 0.316 µM, first compound 0.000949 µM
  viability, T/C: 3.41%
Second compound 0.316 µM, first compound 0.003 µM
  viability, T/C: 4.12%
Second compound 0.316 µM, first compound 0.00949 µM
  viability, T/C: 3.52%
Second compound 0.316 µM, first compound 0.03 µM
  viability, T/C: 4.04%
Second compound 0.316 µM, first compound 0.0949 µM
  viability, T/C: 4.57%
Second compound 0.316 µM, first compound 0.3 µM
  viability, T/C: 3.03%
Second compound 1 µM, first compound 0.000949 µM
  viability, T/C: 0.75%
Second compound 1 µM, first compound 0.003 µM
  viability, T/C: 1.64%
Second compound 1 µM, first compound 0.00949 µM
  viability, T/C: 2.15%
Second compound 1 µM, first compound 0.03 µM
  viability, T/C: 1.03%
Second compound 1 µM, first compound 0.0949 µM
  viability, T/C: 0.6%
Second compound 1 µM, first compound 0.3 µM
  viability, T/C: 2.34%
Second compound 3.16 µM, first compound 0.000949 µM
  viability, T/C: 1.02%
Second compound 3.16 µM, first compound 0.003 µM
  viability, T/C: 1.18%
Second compound 3.16 µM, first compound 0.00949 µM
  viability, T/C: 1.66%
Second compound 3.16 µM, first compound 0.03 µM
  viability, T/C: 1.01%
Second compound 3.16 µM, first compound 0.0949 µM
  viability, T/C: 1.3%
Second compound 3.16 µM, first compound 0.3 µM
  viability, T/C: 1.16%
Second compound 10 µM, first compound 0.000949 µM
  viability, T/C: 0.77%
Second compound 10 µM, first compound 0.003 µM
  viability, T/C: 2.03%
Second compound 10 µM, first compound 0.00949 µM
  viability, T/C: 2.52%
Second compound 10 µM, first compound 0.03 µM
  viability, T/C: 1.87%
Second compound 10 µM, first compound 0.0949 µM
  viability, T/C: 2.21%
Second compound 10 µM, first compound 0.3 µM
  viability, T/C: 1.88%
